Source: patent US8318708B2, “Use of vitamin D receptor agonists, ligands, and precursors to treat pancreatic fibrosis” (Salk Institute for Biological Studies, priority 2007, dated 2012)
Entries after “also recorded” stand apart in the source; their conditions may differ. Where two headings read alike, the source gives them in different places.

Key:
primary HSCs [1] = assay: Illumina array: LPS-treated primary rat HSCs with vitamin D3 or LXR ligand T1317 (Table 3); settings: co-treatment with LPS; T1317 1 μM, vitamin D3 1 nM
Procedure: (§2) For Illumina microarray analysis, Illumina TotalPrep RNA Amplification Kit (Ambion; Catalog # IL1791) was used with the manufacturer's instructions for the RNA amplification. […] Essentially, biotinylated cRNA was prepared according to the manufacturer's directions starting with 200 ng total RNA. Hybridization to the Illumina Sentrix RatRef-12 v.1 and Mouse RefSeq version 2 Expression BeadChips (Illumina, Inc., San Diego, Calif.), washing and scanning were performed according to the Illumina BeadStation 500× manual (revision C). […] RNA is isolated using Trizol and the quality/integrity of the total RNA verified using a Bioanalyzer (Agilent).
(§3) Microarray experiments were repeated two times with RNA from two experiments where HSCs were isolated from two different rats and for each condition triplicate samples were used. The “Detection Score” was used to determine expression using the Illumina platform. It is a statistical measure in the BeadStudio software (version 1.5.0.34), which is computed based on the Z-value of a gene relative to the Z-value of the negative controls. The Illumina data were adjusted (“normalized”) using a cubic spline function. […] The expression difference score, DiffScore, takes into account background noise and sample variability. […] Illumina expression arrays utilize gene-specific 50-mer oligonucleotide probes with an average of 30 replicates of each probe bead per individual array.
Isolated primary HSCs were cultured on plastic tissue culture plates for 40 hours prior to treatment with or without vitamin D3 (1 nM) in the presence or absence of 15 ng/ml of LPS for 24 hours. Cells were then harvested, total RNA extracted, and biotin labeled cRNA was prepared for hybridization to Illumina Rat RefSeq version 1 expression arrays. […] The data generated from these arrays was processed using Illumina BeadStudio software to identify gene expression changes between the different samples.

MCD diet model of NASH = assay: Methionine and choline deficient (MCD) diet model of NASH; format: in vivo, mouse; settings: mice on MCD diet, 1 IU (25 ng) per gram body weight twice weekly
Source text: The methionine and choline deficient (MCD) diet model of nonalcoholic steatohepatitis (NASH) was originally developed in the mid 1990's to provide a suitable animal model to study the pathogenesis of this common human disease (Weltman et al., 1996. Gastroenterology., 111(6):1645-53). It faithfully reproduces the hepatic steatosis, lobular inflammation and fibrosis progressing over time to more severe fibrosis as observed in the human condition. The mouse version of this model has previously been well characterized and reproducibly mice develop hepatic steatosis, inflammation and extensive perivenular and pericellular fibrosis by 10 weeks.
Male C57black wild-type and the VDR floxed knockout mice are fed ad libitum a high fat, MCD diet (ICN cat no: 960439) for up to 10 weeks. Controls are pair-fed the same diet supplemented with choline chloride (2 g/kg) and DL-methionine (3 g/kg). […]. […] Fibrosis is determined by Sirius Red staining of liver samples. Serum transaminases, lipids and bile acids and liver bile acids are quantified as previously published (Stedman et al., 2006. Proc Natl Acad Sci USA., 103(30):11323-8) and hepatic lipids, glutathione and lipid peroxidation also are analyzed using standard published protocols. Additional tissue portions are snap frozen in liquid nitrogen for later preparation of total RNA for gene expression studies by quantitative PCR and gene arrays.

VDR [2] = target: T1, VDR (Rattus norvegicus, UniProt P13053); settings: rat Kupffer cells, FIG. 11B
T1 sequence (P13053 1-423): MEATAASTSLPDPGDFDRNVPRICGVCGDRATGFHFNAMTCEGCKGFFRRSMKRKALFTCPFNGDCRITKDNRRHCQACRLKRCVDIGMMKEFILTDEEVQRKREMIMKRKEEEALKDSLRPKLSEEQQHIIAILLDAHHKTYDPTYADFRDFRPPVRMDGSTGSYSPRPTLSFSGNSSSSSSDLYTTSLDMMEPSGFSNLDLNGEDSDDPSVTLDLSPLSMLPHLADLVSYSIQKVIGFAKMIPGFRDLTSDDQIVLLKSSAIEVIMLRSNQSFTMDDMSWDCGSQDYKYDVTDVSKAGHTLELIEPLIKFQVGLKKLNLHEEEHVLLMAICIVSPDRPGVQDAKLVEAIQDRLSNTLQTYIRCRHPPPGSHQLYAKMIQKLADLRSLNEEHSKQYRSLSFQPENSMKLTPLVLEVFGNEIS

[3] = cited from earlier work
VDR [4] = target: T2, VDR (Homo sapiens, UniProt P11473); assay: Real-time qPCR of CYP24A1 in human LX-2 cell line; format: cell-based
T2 construct: endogenous in cells; host or cells: human LX-2 hepatic stellate cell line
T2 sequence (P11473 1-427): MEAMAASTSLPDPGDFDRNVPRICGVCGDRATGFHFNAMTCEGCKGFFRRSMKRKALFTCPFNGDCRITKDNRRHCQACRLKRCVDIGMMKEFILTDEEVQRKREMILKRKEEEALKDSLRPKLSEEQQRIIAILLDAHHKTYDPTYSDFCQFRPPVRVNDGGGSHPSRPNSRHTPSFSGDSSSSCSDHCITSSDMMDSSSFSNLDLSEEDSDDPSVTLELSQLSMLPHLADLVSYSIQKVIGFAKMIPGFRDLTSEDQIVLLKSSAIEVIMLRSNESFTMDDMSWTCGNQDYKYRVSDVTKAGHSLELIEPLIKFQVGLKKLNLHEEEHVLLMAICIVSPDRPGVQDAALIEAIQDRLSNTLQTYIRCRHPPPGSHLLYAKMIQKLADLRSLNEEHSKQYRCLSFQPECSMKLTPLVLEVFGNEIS
Procedure: Human LX-2 cells were grown to 50% confluence in DMEM with 10% FBS in 6-Well plates.
(§1) For qRT-PCR, 500 ng of deoxyribonuclease-treated total RNA was reverse transcribed into cDNA using SuperScript™ III reverse transcriptase essentially as described by the manufacturer (Invitrogen). Quantification of gene of interest mRNA was performed using a Rotor-Gene, RG 6000 (Corbett Research). […] Human B2M primers were from Applied Biosystems.
TGFβ signaling is the key mediator in hepatic fibrogenesis, triggering the transition of HSCs into myofibroblast-like cells and thereby stimulating synthesis of ECM proteins. Thus, TGFβ1 is produced locally in the organ as part of the fibrotic process It has been previously reported that TGFB signaling can influence the activity of VDR-dependent genes, as depicted in (FIG. 8A). In this model, TGFβ activation results in SMAD3 phosphorylation, inducing its translocation into the nucleus where it associates with the ligand bound VDR complex. Phosphorylated SMAD3 acts as a co-activator in the VDR/vitaminD3 complex enhancing the transcriptional potential of VDR on target genes. To understand the interplay between TGFB and VDR signaling pathways, the effects of TGFβ on the well characterized VDR gene target Cyp24α1 were examined.

[5] = tested on: CCl4-induced liver fibrosis; assay: CCl4-induced liver fibrosis model; format: in vivo, mouse
Source text: . The CCl4 model of chronic liver injury and fibrosis is a well established model of liver injury, inflammation, fibrosis and cirrhosis where CCL4 is metabolized in the liver by CYP2E to a trichloromethyl free radical, which reacts with oxygen to produces a highly reactive peroxytrichloromethyl radical that initiates a damaging cycle of lipid membrane peroxidation and cell death (Leclercq et al., 2001. J. Gastroenterology and Hepatol., 24:51-59). With iterative injury (3 months in mice), extensive scarring develops as indicated by transdifferentiation of HSCs into myofibroblasts, intense myofibroblast proliferation and progressive laying down of ECM components. Following cessation of CCl4 injections, the scarring resolves completely (Kanzler et al., 1999. Am J Physiol., 276(4 Pt 1):G1059-68). These distinct phases of injury, repair, and resolution make this an ideal model for studying both injury and repair mechanisms.
Eight week-old C57BL6 mice were injected with 2 ml/kg body weight of CCl4 i.p. (1:1 v/v in corn oil) or vehicle alone twice weekly for 4 to 12 weeks. Specifically, groups of mice (n=8 per group per time point) are sacrificed at 48 hours (acute injury), 4, 8 and 12 weeks. The animals were terminated after a period of 72 hours after the final CCl4 injection and whole liver, intestine and serum were collected for histological, cytological, biochemical and molecular analyses. […]. Control mice received vehicle alone.
Twice weekly administration of CCl4 for […] caused sustained hepatocyte damage as evidenced by significant increases in serum ALT levels and marked histological changes in liver sections stained with hematoxylin and eosin. Serum ALT, AST and triglyceride (TG) and hepatic lipid peroxides (by TBARs) and TG were measured biochemically. Liver histology was scored blindly by a histopathologist using the Brunt system to determine levels of steatosis and inflammation. Expression levels of key genes involved in BA (Sult2a1) and cholesterol metabolism, transport (Bsep, Ntcp, Mdr1&2, Mrp2&3, Oatp1, 2&4), and synthesis (Srebp2, Cyp7a1) and the NXRs (Lxr, Car, Pxr & Fxr) regulating these genes were determined by real-time quantitative PCR (QPCR) with results normalized to […] (B2M). Protein expression was examined in a select number of genes by Western blotting. Statistical analysis was completed on SPSS v14 using Kruschal Wallis H and Mann-Whitney U tests with p<0.05 considered significant

VDR [6] = target: T1, VDR; settings: rat SECs, FIG. 11A
VDR [7] = target: T1, VDR; assay: Real-time qPCR of VDR target and vitamin D metabolising genes in primary rat HSCs; format: cell-based; parameters: endogenous in cells; host or cells: primary rat hepatic stellate cells (Sprague-Dawley rats)
Procedure: Activated HSCs were cultured on plastic rather than Matrigel in the same media described above. Kupffer cells (KCs) were cultured in Williams' medium E containing 10% FBS, 2 mM glutamine on plastic plates.
as §1

primary HSCs [8] = assay: Illumina array: TGFβ1-treated primary rat HSCs with vitamin D3 (Table 4); settings: co-treatment with TGFβ1 100 pM, vitamin D3 1 nM, 24 h
Procedure: as §2, §3
The Illumina platform described above was used to identify genome-wide effects of vitamin D3-activated VDR on TGFβ signaling in primary rat HSCs. Isolated primary HSCs were cultured on plastic tissue culture plates for 40 hours prior to treatment with or without vitamin D3 (1 nM) in the presence or absence of TGFβ1 (100 pM) for 24 hours. Cells were then harvested, total RNA extracted, and biotin labeled cRNA was prepared for hybridization to an Illumina Rat RefSeq version 1 genome array. […] The data generated from these arrays was processed using Illumina BeadStudio software to identify gene expression changes between the different samples. The vitamin D3 mediated changes on TGFβ1 signaling were identified by comparing TGFβ1 and co-treated TGFβ1/vitamin D3 samples.

Row | Structure (SMILES) | Expression of neutrophil and monocyte attractants (primary HSCs [1]) | Gene induction of the interleukins IL-10 and 6 (primary HSCs [1]) | Production of inflammatory and fibrogenic markers (MCD diet model of NASH) | VDR activation (Cyp24a1 mRNA expression) (VDR [2]) | Levels associated with changes in calcium homeostasis ([3]; isolated reports) | Serum calcidiol with no evidence of adverse effects ([3]; requiring a supply of 250 μg (10,000 IU)) [nmol/L] | Concentration giving maximal enhancement of CYP24A1 (VDR [4]; LX-2 cells, day 2) [nM] | CYP24A1 expression (VDR [4]; culture activated (day 7) LX-2 cells) | Decrease of IL-α expression ([5]; liver, CCl4 mice) | Decrease of MCP-1 expression ([5]; liver, CCl4 mice) | Decrease of TGFβ1 expression ([5]; liver, CCl4 mice) | TNF-α induction ([5]; liver, CCl4 mice) | Production of inflammatory and fibrogenic markers ([5]; mice, CCl4, 1 IU (25 ng) per gram body weight twice weekly, FIG. 9) | VDR activation (Cyp24a1 mRNA expression) (VDR [6]) | CYP24A1 expression (VDR [7]; 100 nM (10-fold higher dose), culture activated HSCs, listed as 25(OH) vitamin D3, monohydrate) | Concentration giving maximal induction of CYP24A1 (VDR [7]; day 2 HSCs) [nM] | Induction of all collagen genes by TGFβ (primary HSCs [8]) | Repression of MMP10 by TGFβ (primary HSCs [8])
1 | O=S(=O)(c1ccccc1)N(CC(F)(F)F)c1ccc(C(O)(C(F)(F)F)C(F)(F)F)cc1 [T1317] | relatively few changes | markedly decreased | – | – | – | – | – | – | – | – | – | – | – | – | – | – | – | –
2 | C=C1CC[C@H](O)C/C1=C/C=C1\CCC[C@]2(C)[C@@H]([C@H](C)CCCC(C)(C)O)CC[C@@H]12 [calcidiol, (5Z,7E)-9,10-Secocholesta-5,7,10(19)-triene-3β,25-diol monohydrate] | – | – | reduced | also activated | exceeding 500 nmol/l | < 140 | 100 | barely induced | about 50% | about 50% | about 50% | no induction | significantly reduced | also activated | moderately increasing; also recorded: barely induced | 10 | – | –
3 | C=C1CC[C@H](O)C/C1=C/C=C1\CCC[C@]2(C)[C@@H]([C@H](C)CCCC(C)C)CC[C@@H]12 [vitamin D3, reference compound] | preferentially repressed | did not alter | – | – | – | – | – | – | – | – | – | – | – | – | – | – | markedly decreased | inhibited
